In general, Ki refers to the equilibrium dissociation constant of an inhibitor or competing ligand from its target. The term melting point denotes the temperature, or range, at which the solid turns liquid. As a reminder, the Emax is the size of the effect at its maximum, as opposed to the concentration needed. Usually EC50 stands for the concentration that produces a half-maximal response.

The text below walks through data of PMC9917830, “New Piperazine Derivatives of 6-Acetyl-7-hydroxy-4-methylcoumarin as 5-HT1A Receptor Agents” (International Journal of Molecular Sciences, 2023).

Data set [1] addresses T1, 5-HT2A receptor (Rattus norvegicus, UniProt P14842).
T1 construct: Brains were rapidly removed and placed on ice; from tissue; host or cells: Sprague–Dawley rat frontal cortex membranes
Nature of the data set: Competitive 5-HT2A binding assay with [3H]ketanserin, rat frontal cortex membranes. The conditions noted are these: 1 nM [3H]ketanserin, 95% CI in brackets, read-out: 5-HT2A Affinity Ki (nM, 95% CI). Here is the method: (§1) Sprague–Dawley rats were sacrificed by isoflurane overdose. Brains were rapidly removed and placed on ice. Hippocampi (for 5-HT1A assays) and frontal cortices (for 5-HT2A assays) were dissected on a Petri dish. The tissue from 10 rats was homogenized in 30 vol. homogenization buffer (50 mM Tris-HCl, […], 1 mM EDTA, 1 mM dithiothreitol) with a hand-held Teflon-glass homogenizer. The homogenate was centrifuged at 48,000× g at 4 °C for 15 min. The pellet was suspended and homogenized in homogenization buffer and incubated for 10 min at 36 °C. The centrifugation and suspension steps were repeated twice. The final pellet was homogenized in 5 vol. 50 mM Tris-HCl, pH = 7.4 buffer and stored at −80 °C for not more than 6 months.
(§2) Non-specific binding was determined with 10 μM serotonin in both assays. The final DMSO concentration in the assay was 5%. After incubation, the reaction mixture was deposited with the FilterMate-96 Harvester (Perkin Elmer, Waltham, MA, USA) onto Unifilter® GF/C plates (Perkin Elmer, Waltham, MA, USA) presoaked in 0.4% PEI for 1h. Each well was washed with 2 mL of 50 mM Tris-HCl (pH 7.4) buffer to separate bound ligands from free ones. Plates were left to dry overnight. Then, 35 µL of Microscint-20 scintillation fluid (Perkin Elmer, Waltham, MA, USA) was added to each filter well and left to equilibrate for 2 h. Filter-bound radioactivity was counted in a MicroBeta^2 LumiJet scintillation counter (Perkin Elmer, Waltham, MA, USA). Binding curves were fitted with one-site non-linear regression. Binding affinity (pKi ± SEM and Ki ± 95% confidence intervals) for each compound was calculated from […] values with the Cheng-Prusoff equation from two separate experiments.

The target in data set [2] is T2, 5-HT1A receptor (Rattus norvegicus, UniProt P19327).
T2 construct: Brains were rapidly removed and placed on ice; from tissue; host or cells: Sprague–Dawley rat hippocampus membranes
T2 sequence (P19327 1-422): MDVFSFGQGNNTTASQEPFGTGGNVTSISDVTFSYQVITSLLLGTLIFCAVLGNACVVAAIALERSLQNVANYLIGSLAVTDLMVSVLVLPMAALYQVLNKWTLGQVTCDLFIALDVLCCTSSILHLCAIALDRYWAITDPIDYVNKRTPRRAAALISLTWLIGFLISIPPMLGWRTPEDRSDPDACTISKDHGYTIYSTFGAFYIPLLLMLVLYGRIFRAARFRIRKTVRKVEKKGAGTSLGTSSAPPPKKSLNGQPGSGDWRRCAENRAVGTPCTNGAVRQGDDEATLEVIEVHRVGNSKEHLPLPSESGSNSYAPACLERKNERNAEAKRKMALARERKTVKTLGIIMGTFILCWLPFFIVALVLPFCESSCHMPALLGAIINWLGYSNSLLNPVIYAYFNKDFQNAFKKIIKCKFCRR
Nature of the data set: Competitive 5-HT1A binding assay with [3H]8-OH-DPAT, rat hippocampal membranes. The conditions noted are these: 1 nM [3H]8-OH-DPAT, 95% CI in brackets, read-out: 5-HT1A Affinity Ki (nM, 95% CI). The protocol: as §1, §2

The target in data set [3] is T2, 5-HT1A receptor. Nature of the data set: 5-HT1A receptor activation in the [35S]GTP-γ-S assay (agonist and antagonist mode). The class given is biochemical. The protocol:
as §1, with “The pellet was suspended and homogenized in homogenization buffer and incubated for 10 min at 36 °C.” left out
Non-specific binding was determined with 100 µM of unlabeled GTPγS. The compounds were tested in both the agonist and antagonist mode. […] The final DMSO concentration in the assay was 5%. The reaction mixture was incubated for 90 min at 30 °C on an orbital shaker set at 250 rpm. The reaction mixture was then deposited under vacuum with the FilterMate Harvester® (Perkin Elmer, Waltham, MA, USA) onto Unifilter® GF/C Plates (Perkin Elmer, Waltham, MA, USA) presoaked with wash buffer (50 mM Tris-HCl, pH = 7.4). The wells were then rapidly washed with 2 mL of wash buffer. The filter plates were dried overnight at room temperature. Once completely dry, 35 µL of MicroScint PS (Perkin Elmer, Waltham, MA, USA) scintillation fluid was added to each well. Radioactivity was counted in a MicroBeta^2 LumiJet scintillation counter (Perkin Elmer, Waltham, MA, USA). […] The curves were fitted with the three-parameter non-linear regression model.
For orientation: GTPγS is a poorly hydrolysed GTP analogue; its binding reports G protein activation.

T1 sequence (P14842 whole entry): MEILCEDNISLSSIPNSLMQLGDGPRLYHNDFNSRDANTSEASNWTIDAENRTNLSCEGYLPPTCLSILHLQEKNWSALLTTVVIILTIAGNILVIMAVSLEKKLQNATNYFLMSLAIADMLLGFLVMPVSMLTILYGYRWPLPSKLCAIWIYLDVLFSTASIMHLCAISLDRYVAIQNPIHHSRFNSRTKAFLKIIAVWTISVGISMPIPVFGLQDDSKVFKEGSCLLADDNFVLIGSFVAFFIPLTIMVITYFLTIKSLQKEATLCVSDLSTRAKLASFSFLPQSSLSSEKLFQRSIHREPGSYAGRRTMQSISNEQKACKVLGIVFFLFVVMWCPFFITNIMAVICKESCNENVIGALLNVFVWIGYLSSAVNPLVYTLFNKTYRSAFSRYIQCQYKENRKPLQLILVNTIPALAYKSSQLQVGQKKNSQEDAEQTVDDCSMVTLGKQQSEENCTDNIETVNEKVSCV

In turn, `CC(=O)c1cc2c(C)cc(=O)oc2cc1OCCCCN1CCN(c2cnccn2)CC1` [Compound 15, 6-Acetyl-7-{4-[4-(pyrazin-2-yl)piperazin-1-yl]butoxy}-4-methylchromen-2-one] had a melting point of 150 to 151 °C. The Ki in data set [1] is 6600 nM. The inhibition constant (Ki) in data set [2] turned out to be 25 nM. The molecule also showed an Emax in data set [3] (agonist mode, efficacy ± SEM) of 170 ± 1.3%. The EC50 in data set [3] (agonist mode, rat hippocampal membranes, 95% CI in brackets, read-out: 5-HT1A Receptor Stimulation EC50 (nM, 95% CI)) stood at 1300 nM. Besides, the “agonist or antagonist properties at the 5-HT1A receptor” value in data set [3] (result in words) was “agonistic profile”.
